Test results taken from ChEMBL document CHEMBL4507291 (2021).

Experiments:
[1] = biological target: T1, Serine/threonine-protein kinase TAO2 (Homo sapiens) (UniProt Q9UL54); test: TAOK2 (TAO1) Kinase screen; conditions: Compound concentration 1.0 uM
T1 sequence (whole entry): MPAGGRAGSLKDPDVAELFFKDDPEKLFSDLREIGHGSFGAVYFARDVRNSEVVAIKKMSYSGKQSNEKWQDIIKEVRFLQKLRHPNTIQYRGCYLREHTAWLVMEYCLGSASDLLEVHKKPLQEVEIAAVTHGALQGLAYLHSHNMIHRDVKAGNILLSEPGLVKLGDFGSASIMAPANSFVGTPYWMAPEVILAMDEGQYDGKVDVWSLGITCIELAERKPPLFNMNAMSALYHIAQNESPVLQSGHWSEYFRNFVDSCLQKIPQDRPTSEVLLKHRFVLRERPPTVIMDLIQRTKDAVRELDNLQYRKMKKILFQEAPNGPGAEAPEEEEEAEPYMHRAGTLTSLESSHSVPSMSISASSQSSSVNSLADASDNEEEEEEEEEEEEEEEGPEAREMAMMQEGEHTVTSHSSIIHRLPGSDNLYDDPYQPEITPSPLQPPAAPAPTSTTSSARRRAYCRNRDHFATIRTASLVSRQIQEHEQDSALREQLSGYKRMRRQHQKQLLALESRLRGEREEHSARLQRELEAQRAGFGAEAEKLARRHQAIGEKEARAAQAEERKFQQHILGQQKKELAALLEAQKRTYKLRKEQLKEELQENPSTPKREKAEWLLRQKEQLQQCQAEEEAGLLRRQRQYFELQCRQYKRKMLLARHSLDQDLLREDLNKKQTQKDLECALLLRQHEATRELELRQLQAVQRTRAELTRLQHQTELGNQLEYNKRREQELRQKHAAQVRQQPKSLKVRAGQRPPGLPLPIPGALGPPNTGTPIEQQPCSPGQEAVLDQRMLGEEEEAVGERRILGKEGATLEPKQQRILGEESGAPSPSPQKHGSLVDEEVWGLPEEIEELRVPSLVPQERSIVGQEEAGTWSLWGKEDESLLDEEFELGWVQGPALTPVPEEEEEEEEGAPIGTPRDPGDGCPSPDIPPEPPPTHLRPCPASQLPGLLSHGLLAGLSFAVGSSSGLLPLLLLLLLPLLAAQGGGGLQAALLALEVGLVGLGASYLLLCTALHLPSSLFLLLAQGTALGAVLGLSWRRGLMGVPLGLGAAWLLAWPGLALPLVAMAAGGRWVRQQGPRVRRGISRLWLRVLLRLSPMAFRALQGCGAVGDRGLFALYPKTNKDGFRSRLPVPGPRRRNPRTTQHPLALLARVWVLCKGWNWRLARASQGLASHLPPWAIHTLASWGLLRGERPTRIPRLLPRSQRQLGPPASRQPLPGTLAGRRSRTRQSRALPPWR

[2] = biological target: CDK8/Cyclin C (Homo sapiens) (UniProt P49336+P24863); test: CDK8/cyclin C Kinase screen; type: protein-complex assay; conditions: Compound concentration 1.0 uM
[3] = biological target: T2, Megakaryocyte-associated tyrosine-protein kinase (Homo sapiens) (UniProt P42679); test: MATK (HYL) Kinase screen; conditions: Compound concentration 1.0 uM
T2 sequence (whole entry): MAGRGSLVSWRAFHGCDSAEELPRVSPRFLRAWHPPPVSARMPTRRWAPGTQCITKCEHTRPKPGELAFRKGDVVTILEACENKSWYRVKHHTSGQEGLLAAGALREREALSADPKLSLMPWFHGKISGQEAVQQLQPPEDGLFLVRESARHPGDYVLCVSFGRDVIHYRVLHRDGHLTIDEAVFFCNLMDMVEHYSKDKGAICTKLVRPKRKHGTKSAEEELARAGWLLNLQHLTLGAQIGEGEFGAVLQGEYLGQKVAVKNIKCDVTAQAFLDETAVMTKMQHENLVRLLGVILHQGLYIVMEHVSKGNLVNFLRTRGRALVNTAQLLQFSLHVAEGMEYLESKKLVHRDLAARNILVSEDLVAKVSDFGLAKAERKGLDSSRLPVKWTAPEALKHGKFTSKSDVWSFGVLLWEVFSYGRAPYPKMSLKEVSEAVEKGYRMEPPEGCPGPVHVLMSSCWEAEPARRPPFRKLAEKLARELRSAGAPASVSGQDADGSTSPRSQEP

[4] = biological target: Adenosine receptor A2a (Homo sapiens) (UniProt P29274); conditions: Compound concentration 10.0 uM
Chain of Adenosine receptor A2a (Homo sapiens) (P29274 whole entry): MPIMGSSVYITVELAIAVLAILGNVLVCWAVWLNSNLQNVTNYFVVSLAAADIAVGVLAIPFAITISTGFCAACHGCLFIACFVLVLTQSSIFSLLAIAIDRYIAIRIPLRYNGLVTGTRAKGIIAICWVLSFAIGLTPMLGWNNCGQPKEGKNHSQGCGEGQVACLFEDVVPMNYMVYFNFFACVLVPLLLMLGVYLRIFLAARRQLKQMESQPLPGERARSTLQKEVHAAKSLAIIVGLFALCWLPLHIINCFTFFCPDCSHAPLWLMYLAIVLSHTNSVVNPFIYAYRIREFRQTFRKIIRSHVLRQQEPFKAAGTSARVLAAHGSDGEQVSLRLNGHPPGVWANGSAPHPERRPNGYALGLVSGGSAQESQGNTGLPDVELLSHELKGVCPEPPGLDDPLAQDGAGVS

[5] = biological target: Tyrosine-protein kinase ABL2 (Homo sapiens) (UniProt P42684); test: ABL2 (Arg) Kinase screen; conditions: Compound concentration 1.0 uM
Chain of Tyrosine-protein kinase ABL2 (Homo sapiens) (P42684 whole entry): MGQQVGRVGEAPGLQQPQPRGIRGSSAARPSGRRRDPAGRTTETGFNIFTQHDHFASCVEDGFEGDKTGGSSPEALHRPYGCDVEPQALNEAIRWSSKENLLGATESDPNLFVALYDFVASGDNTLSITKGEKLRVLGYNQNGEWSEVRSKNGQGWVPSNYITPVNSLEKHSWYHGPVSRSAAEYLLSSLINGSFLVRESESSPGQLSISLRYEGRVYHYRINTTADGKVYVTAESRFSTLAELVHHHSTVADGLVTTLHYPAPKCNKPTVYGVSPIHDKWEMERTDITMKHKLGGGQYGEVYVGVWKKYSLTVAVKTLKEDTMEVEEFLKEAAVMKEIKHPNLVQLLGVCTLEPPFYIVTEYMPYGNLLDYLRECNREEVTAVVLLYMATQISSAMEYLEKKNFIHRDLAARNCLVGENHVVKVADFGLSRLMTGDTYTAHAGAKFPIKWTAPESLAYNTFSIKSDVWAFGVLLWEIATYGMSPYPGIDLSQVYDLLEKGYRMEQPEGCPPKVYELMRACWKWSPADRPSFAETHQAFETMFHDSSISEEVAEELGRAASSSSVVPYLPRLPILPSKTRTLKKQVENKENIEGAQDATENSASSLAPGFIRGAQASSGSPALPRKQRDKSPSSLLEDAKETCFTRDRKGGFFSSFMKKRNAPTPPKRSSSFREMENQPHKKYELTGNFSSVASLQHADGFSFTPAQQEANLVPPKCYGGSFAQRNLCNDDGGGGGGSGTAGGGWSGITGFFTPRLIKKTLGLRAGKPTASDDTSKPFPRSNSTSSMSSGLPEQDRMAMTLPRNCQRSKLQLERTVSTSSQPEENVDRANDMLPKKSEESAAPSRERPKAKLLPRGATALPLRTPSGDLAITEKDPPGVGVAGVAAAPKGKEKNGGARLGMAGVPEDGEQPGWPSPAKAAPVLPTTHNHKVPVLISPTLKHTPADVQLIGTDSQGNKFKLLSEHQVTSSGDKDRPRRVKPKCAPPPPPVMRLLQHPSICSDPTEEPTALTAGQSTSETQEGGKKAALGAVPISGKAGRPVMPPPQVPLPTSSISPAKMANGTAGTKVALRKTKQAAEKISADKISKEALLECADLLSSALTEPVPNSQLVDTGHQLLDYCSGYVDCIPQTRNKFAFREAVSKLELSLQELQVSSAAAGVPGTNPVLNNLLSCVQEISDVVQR

[6] = biological target: Tyrosine-protein kinase FRK (Homo sapiens) (UniProt P42685); test: FRK (PTK5) Kinase screen; conditions: Compound concentration 1.0 uM
Chain of Tyrosine-protein kinase FRK (Homo sapiens) (P42685 whole entry): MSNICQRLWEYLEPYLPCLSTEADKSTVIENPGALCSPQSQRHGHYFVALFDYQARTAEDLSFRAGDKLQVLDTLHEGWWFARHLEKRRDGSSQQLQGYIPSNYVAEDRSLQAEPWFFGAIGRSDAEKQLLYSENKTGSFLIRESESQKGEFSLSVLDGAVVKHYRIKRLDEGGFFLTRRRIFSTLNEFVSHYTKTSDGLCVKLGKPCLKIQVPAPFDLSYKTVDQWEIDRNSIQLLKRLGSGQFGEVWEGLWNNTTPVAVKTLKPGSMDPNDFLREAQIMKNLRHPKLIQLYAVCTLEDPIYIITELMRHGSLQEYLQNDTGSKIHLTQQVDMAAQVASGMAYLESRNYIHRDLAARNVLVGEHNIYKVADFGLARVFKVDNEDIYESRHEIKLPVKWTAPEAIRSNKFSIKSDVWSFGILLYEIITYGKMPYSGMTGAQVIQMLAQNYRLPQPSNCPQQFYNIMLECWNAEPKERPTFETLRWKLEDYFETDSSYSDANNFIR

[7] = system: RAF proto-oncogene serine/threonine-protein kinase (Homo sapiens), P04049 [Y340D,Y341D]; test: RAF1 (cRAF) Y340D Y341D Kinase screen; conditions: Compound concentration 1.0 uM
Chain of RAF proto-oncogene serine/threonine-protein kinase (Homo sapiens), P04049 [Y340D,Y341D] (P04049 whole entry Y340D/Y341D): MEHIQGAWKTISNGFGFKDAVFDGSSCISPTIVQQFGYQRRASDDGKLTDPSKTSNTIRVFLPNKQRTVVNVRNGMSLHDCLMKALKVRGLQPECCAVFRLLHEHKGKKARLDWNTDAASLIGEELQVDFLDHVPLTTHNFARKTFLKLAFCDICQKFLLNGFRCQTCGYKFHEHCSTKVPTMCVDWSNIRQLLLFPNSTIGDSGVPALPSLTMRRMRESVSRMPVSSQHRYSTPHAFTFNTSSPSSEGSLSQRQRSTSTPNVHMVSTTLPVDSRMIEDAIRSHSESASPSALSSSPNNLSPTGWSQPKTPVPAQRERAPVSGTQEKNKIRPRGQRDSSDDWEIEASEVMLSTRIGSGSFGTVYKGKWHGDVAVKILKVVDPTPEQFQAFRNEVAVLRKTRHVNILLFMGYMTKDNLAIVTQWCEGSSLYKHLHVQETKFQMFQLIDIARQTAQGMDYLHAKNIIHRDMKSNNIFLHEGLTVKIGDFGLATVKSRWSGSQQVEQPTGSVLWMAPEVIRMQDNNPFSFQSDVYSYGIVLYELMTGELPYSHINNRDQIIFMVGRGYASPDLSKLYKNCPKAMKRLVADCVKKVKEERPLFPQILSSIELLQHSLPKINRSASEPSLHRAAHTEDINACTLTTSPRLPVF

[8] = biological target: SRSF protein kinase 3 (Homo sapiens) (UniProt Q9UPE1); test: STK23 (MSSK1) Kinase screen; conditions: Compound concentration 1.0 uM
Chain of SRSF protein kinase 3 (Homo sapiens) (Q9UPE1 whole entry): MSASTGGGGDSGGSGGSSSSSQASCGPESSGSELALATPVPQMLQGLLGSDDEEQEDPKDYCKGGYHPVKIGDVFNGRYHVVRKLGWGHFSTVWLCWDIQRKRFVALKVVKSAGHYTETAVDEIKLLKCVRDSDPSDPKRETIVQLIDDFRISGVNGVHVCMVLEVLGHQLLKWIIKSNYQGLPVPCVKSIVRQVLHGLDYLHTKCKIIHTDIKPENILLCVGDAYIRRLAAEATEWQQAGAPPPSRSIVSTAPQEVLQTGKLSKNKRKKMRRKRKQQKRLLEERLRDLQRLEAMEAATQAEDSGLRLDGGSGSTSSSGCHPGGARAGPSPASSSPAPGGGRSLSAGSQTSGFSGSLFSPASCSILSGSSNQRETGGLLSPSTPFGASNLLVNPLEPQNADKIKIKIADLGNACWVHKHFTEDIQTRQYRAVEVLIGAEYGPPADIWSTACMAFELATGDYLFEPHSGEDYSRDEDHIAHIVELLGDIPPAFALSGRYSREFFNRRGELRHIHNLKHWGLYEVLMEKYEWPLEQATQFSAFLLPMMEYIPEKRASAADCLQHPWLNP

[9] = biological target: Prostaglandin G/H synthase 1 (Homo sapiens) (UniProt P23219); test: Inhibition of Cyclooxygenase COX-1 at compound concentration of 10.0 uM in the Eurofins-Panlabs enzyme assay (Eurofins_assay_116020); conditions: Compound concentration 10.0 uM
Chain of Prostaglandin G/H synthase 1 (Homo sapiens) (P23219 whole entry): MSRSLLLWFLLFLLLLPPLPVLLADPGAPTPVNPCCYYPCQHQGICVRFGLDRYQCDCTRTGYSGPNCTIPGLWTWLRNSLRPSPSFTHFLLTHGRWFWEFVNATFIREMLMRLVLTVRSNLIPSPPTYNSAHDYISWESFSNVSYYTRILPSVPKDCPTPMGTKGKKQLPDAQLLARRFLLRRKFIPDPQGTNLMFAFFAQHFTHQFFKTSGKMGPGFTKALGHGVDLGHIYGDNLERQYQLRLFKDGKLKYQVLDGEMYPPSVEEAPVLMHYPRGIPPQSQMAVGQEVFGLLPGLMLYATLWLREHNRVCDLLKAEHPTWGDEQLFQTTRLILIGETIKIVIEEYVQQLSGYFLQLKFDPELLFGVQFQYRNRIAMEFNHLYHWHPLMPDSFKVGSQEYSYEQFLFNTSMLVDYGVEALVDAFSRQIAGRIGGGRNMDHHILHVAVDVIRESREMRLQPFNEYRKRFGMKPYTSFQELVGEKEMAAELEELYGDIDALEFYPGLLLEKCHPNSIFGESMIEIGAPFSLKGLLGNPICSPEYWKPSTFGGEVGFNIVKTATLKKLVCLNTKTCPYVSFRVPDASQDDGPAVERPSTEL

[10] = biological target: T3, cGMP-dependent protein kinase 2 (Homo sapiens) (UniProt Q13237); test: PRKG2 (PKG2) Kinase screen; conditions: Compound concentration 1.0 uM
T3 sequence (whole entry): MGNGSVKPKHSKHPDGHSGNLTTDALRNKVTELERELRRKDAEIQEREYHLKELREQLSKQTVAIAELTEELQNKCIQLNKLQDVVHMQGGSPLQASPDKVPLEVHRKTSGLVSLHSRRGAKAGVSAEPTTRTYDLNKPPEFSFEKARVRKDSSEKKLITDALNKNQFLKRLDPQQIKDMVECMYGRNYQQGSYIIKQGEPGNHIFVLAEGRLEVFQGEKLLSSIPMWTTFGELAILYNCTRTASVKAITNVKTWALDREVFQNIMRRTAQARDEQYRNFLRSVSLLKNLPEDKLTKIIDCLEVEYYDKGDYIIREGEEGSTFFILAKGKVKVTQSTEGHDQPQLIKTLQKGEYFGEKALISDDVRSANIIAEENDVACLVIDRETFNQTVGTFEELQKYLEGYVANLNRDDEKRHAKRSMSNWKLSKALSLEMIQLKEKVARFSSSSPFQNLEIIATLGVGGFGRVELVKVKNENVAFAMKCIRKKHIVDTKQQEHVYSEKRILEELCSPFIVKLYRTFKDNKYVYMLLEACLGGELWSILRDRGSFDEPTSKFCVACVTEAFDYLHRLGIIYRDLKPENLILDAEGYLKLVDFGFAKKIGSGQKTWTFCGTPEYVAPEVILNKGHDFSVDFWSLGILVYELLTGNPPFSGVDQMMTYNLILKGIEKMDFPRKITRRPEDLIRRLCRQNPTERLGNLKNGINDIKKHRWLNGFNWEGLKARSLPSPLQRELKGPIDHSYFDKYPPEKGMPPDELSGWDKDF

[11] = biological target: Serine/threonine-protein kinase 26 (Homo sapiens) (UniProt Q9P289); test: MST4 Kinase screen; conditions: Compound concentration 1.0 uM
Chain of Serine/threonine-protein kinase 26 (Homo sapiens) (Q9P289 2-416 limits assumed): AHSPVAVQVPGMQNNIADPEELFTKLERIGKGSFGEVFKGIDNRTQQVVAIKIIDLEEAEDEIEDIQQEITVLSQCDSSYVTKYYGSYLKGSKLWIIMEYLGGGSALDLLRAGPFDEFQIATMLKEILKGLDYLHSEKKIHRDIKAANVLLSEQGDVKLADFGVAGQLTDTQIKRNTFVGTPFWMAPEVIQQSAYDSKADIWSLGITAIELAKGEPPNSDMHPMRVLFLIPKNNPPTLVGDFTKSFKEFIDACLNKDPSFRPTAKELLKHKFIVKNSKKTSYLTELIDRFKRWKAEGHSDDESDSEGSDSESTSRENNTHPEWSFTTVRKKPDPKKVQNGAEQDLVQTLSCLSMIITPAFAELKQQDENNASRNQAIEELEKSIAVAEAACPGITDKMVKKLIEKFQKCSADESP

[12] = biological target: Protein-tyrosine kinase 2-beta (Homo sapiens) (UniProt Q14289); test: PTK2B (FAK2) Kinase screen; conditions: Compound concentration 1.0 uM

Measured: inhibition

C[C@@H]1CN(c2cc(-c3n[nH]c4ccc(OC5(C)CC5)cc34)ncn2)C[C@H](C)O1 [MLi-2]
inactive: [1] -2.67% | [2] 8.75% | [3] 3.28% | [4] 1% | [5] 0.91% | [6] 7.13% | [7] 2.98% | [8] 11.9% | [9] 9% | [10] 1.23% | [11] 6.89% | [12] 2.48%
